# Assay results published in article PMC11859928, “Design, Synthesis, and Antiproliferative Activity of Novel Indole/1,2,4-Triazole Hybrids as Tubulin Polymerization Inhibitors” (Pharmaceuticals, 2025).
# How the values were obtained:
# Assay in all cases: NCI one-dose assay
# Assay type in all cases: cell-based
# [1] = system: HT29; details: Homo sapiens, HT-29, HT29, Colon cancer, read-out: Cell growth inhibition %
# Method: (§1) The National Cancer Institute (NCI), Bethesda, USA, selected the final compounds 6a–j and 7a–j for in vitro anticancer screening. An initial in vitro single-dose anticancer experiment was performed with the entire NCI 60 cell lines derived from nine tumor subpanel cancer cell lines. The results for each compound were illustrated as a mean graph showing the percentage growth of treated cells compared to untreated control cells (see Supplementary Materials).
# (§2) The NCI anticancer screening process has been thoroughly detailed. The Drug Evaluation Branch of the National Cancer Institute in Bethesda, […], USA, established the procedure and conducted the anticancer assay on 60 human tumor cell lines from nine neoplastic cancers.
# [2] = system: HS 578 T; details: Homo sapiens, Breast cancer, read-out: Cell growth inhibition %
# Method: as §1, §2
# [3] = system: CCRF-CEM; details: Homo sapiens, Leukemia, read-out: Cell growth inhibition %
# Method: as §1, §2
# [4] = system: SK-OV-3; details: Homo sapiens, SK-OV-3, Ovarian cancer, read-out: Cell growth inhibition %
# Method: as §1, §2
# [5] = system: BT-549; details: Homo sapiens, BT-549, Breast cancer, read-out: Cell growth inhibition %
# Method: as §1, §2
# [6] = system: T-47D; details: Homo sapiens, T47D, Breast cancer, read-out: Cell growth inhibition %
# Method: as §1, §2
# [7] = system: KM12; details: Homo sapiens, KM12, Colon cancer, read-out: Cell growth inhibition %
# Method: as §1, §2
# [8] = system: OVCAR-4; details: Homo sapiens, OVCAR-4, Ovarian cancer, read-out: Cell growth inhibition %
# Method: as §1, §2
# [9] = system: SNB-75; details: Homo sapiens, SNB-75, CNS cancer, read-out: Cell growth inhibition %
# Method: as §1, §2
# [10] = system: TK-10; details: Homo sapiens, TK-10, Renal cancer, read-out: Cell growth inhibition %
# Method: as §1, §2
# [11] = system: MOLT-4; details: Homo sapiens, MOLT-4, Leukemia, read-out: Cell growth inhibition %
# Method: as §1, §2
# [12] = system: HOP-62; details: Homo sapiens, HOP-62, Non-small cell lung cancer, read-out: Cell growth inhibition %
# Method: as §1, §2
# [13] = system: UACC-257; details: Homo sapiens, UACC-257, Melanoma, read-out: Cell growth inhibition %
# Method: as §1, §2
# [14] = system: HCC-2998; details: Homo sapiens, HCC-2998, Colon cancer, read-out: Cell growth inhibition %
# Method: as §1, §2
# [15] = system: UACC-62; details: Homo sapiens, UACC-62, Melanoma, read-out: Cell growth inhibition %
# Method: as §1, §2
# [16] = system: SR; details: Homo sapiens, Leukemia, read-out: Cell growth inhibition %
# Method: as §1, §2
# [17] = system: HCT-116; details: Homo sapiens, HCT-116, Colon cancer, read-out: Cell growth inhibition %
# Method: as §1, §2
# [18] = system: IGROV1; details: Homo sapiens, IGROV-1, IGROV1, Ovarian cancer, read-out: Cell growth inhibition %
# Method: as §1, §2
# [19] = system: NCI-H23; details: Homo sapiens, NCI-H23, Non-small cell lung cancer, read-out: Cell growth inhibition %
# Method: as §1, §2
# [20] = system: SF-539; details: Homo sapiens, SF-539, CNS cancer, read-out: Cell growth inhibition %
# Method: as §1, §2
# [21] = system: OVCAR-5; details: Homo sapiens, OVCAR-5, Ovarian cancer, read-out: Cell growth inhibition %
# Method: as §1, §2
# [22] = system: SK-MEL-5; details: Homo sapiens, SK-MEL-5, Melanoma, read-out: Cell growth inhibition %
# Method: as §1, §2
# [23] = system: DU-145; details: Homo sapiens, DU-145, Prostate cancer, read-out: Cell growth inhibition %
# Method: as §1, §2
# [24] = system: MDA-MB-231/ATCC; details: Homo sapiens, Breast cancer, read-out: Cell growth inhibition %
# Method: as §1, §2
# [25] = system: SK-MEL-2; details: Homo sapiens, SK-MEL-2, Melanoma, read-out: Cell growth inhibition %
# Method: as §1, §2
# [26] = system: HCT-15; details: Homo sapiens, HCT-15, Colon cancer, read-out: Cell growth inhibition %
# Method: as §1, §2
# [27] = system: MALME-3M; details: Homo sapiens, Melanoma, read-out: Cell growth inhibition %
# Method: as §1, §2
# [28] = system: MDA-MB-435; details: Homo sapiens, MDA-MB-435, Melanoma, read-out: Cell growth inhibition %
# Method: as §1, §2
# [29] = system: OVCAR-8; details: Homo sapiens, OVCAR-8, Ovarian cancer, read-out: Cell growth inhibition %
# Method: as §1, §2
# [30] = system: SN12C; details: Homo sapiens, Renal cancer, read-out: Cell growth inhibition %
# Method: as §1, §2
# [31] = system: SNB-19; details: Homo sapiens, SNB-19, CNS cancer, read-out: Cell growth inhibition %
# Method: as §1, §2
# [32] = system: MDA-MB-468; details: Homo sapiens, MDA-MB-468, Breast cancer, read-out: Cell growth inhibition %
# Method: as §1, §2
# [33] = system: NCI/ADR-RES; details: Homo sapiens, Ovarian cancer, read-out: Cell growth inhibition %
# Method: as §1, §2
# [34] = system: SW-620; details: Homo sapiens, SW-620, Colon cancer, read-out: Cell growth inhibition %
# Method: as §1, §2
# [35] = system: CAKI-1; details: Homo sapiens, CAKI-1, Renal cancer, read-out: Cell growth inhibition %
# Method: as §1, §2
# [36] = system: K-562; details: Homo sapiens, K562, K-562, Leukemia, read-out: Cell growth inhibition %
# Method: as §1, §2
Compound,inhibition at 10 µM [1],inhibition at 10 µM [2],inhibition at 10 µM [3],inhibition at 10 µM [4],inhibition at 10 µM [5],inhibition at 10 µM [6],inhibition at 10 µM [7],inhibition at 10 µM [8],inhibition at 10 µM [9],inhibition at 10 µM [10],inhibition at 10 µM [11],inhibition at 10 µM [12],inhibition at 10 µM [13],inhibition at 10 µM [14],inhibition at 10 µM [15],inhibition at 10 µM [16],inhibition at 10 µM [17],inhibition at 10 µM [18],inhibition at 10 µM [19],inhibition at 10 µM [20],further results
"C=CCn1c(SCC(=O)c2ccccc2)nnc1-c1c[nH]c2ccccc12 [Compound 6a, 2-((4-Allyl-5-(1H-indol-3-yl)-4H-1,2,4-triazol-3-yl)thio)-1-phenylethanone]",-11.8%,2.96%,8.76%,-20.4%,-9.39%,5.03%,-11.8%,2.53%,3.62%,-43.9%,7.17%,7.46%,2.08%,-10.6%,18.5%,23.5%,2.55%,11.6%,0.39%,2.68%,inhibition at 10 µM [21]: -3.17%; inhibition at 10 µM [22]: 3.38%; inhibition at 10 µM [23]: -9.05%; inhibition at 10 µM [24]: 11.2%; inhibition at 10 µM [25]: -4.98%; inhibition at 10 µM [26]: 4%; inhibition at 10 µM [27]: 13.4%; inhibition at 10 µM [28]: -5.02%; inhibition at 10 µM [29]: 4.58%; inhibition at 10 µM [30]: 7.27%; inhibition at 10 µM [31]: 1.66%; inhibition at 10 µM [32]: 12.3%; inhibition at 10 µM [33]: 2.62%; inhibition at 10 µM [34]: 3.89%; inhibition at 10 µM [35]: 16.9%; inhibition at 10 µM [36]: 7.37%
"C=CCn1c(SCC(=O)c2ccc(OC)cc2)nnc1-c1c[nH]c2ccccc12 [Compound 6b, 2-((4-Allyl-5-(1H-indol-3-yl)-4H-1,2,4-triazol-3-yl)thio)-1-(4-methoxyphenyl) Ethenone]",-12.7%,0.85%,8.66%,-30.5%,-1.84%,11.1%,-4.63%,-4.81%,-14.8%,-40.5%,6.64%,6.07%,-2.78%,-3.48%,15.6%,18.5%,5.43%,11.1%,5.52%,1.18%,inhibition at 10 µM [21]: -2.88%; inhibition at 10 µM [22]: 3.34%; inhibition at 10 µM [23]: -11.8%; inhibition at 10 µM [24]: 11.1%; inhibition at 10 µM [25]: -33.2%; inhibition at 10 µM [26]: 2.44%; inhibition at 10 µM [27]: 5.32%; inhibition at 10 µM [28]: -8.45%; inhibition at 10 µM [29]: 4.99%; inhibition at 10 µM [30]: 3.73%; inhibition at 10 µM [31]: -1.42%; inhibition at 10 µM [32]: 5.01%; inhibition at 10 µM [33]: -3.74%; inhibition at 10 µM [34]: 0.51%; inhibition at 10 µM [35]: 7.83%; inhibition at 10 µM [36]: 8.14%
"C=CCn1c(SCC(=O)c2ccc(C)cc2)nnc1-c1c[nH]c2ccccc12 [Compound 6c, 2-((4-allyl-5-(1H-indol-3-yl)-4H-1,2,4-triazol-3-yl)thio)-1-(p-tolyl)ethanone]",-6.98%,-2.83%,9.66%,-22.4%,2.35%,9.92%,-6.02%,-10.4%,-4.77%,-39.1%,9.13%,9.23%,6.7%,-7.01%,24.7%,8.97%,9.79%,19.6%,-5.98%,1.45%,inhibition at 10 µM [21]: -2.57%; inhibition at 10 µM [22]: 6.71%; inhibition at 10 µM [23]: -8.9%; inhibition at 10 µM [24]: 11.5%; inhibition at 10 µM [25]: 1.54%; inhibition at 10 µM [26]: 6.36%; inhibition at 10 µM [27]: 10.5%; inhibition at 10 µM [28]: -2.15%; inhibition at 10 µM [29]: 10.4%; inhibition at 10 µM [30]: 5.47%; inhibition at 10 µM [31]: 3.56%; inhibition at 10 µM [32]: 12.5%; inhibition at 10 µM [33]: 4.65%; inhibition at 10 µM [34]: -0.34%; inhibition at 10 µM [35]: 15.1%; inhibition at 10 µM [36]: 12.8%
"C=CCn1c(SCC(=O)c2ccc(Br)cc2)nnc1-c1c[nH]c2ccccc12 [Compound 6d, 2-((4-Allyl-5-(1H-indol-3-yl)-4H-1,2,4-triazol-3-yl)thio)-1-(4-bromophenyl)ethenone]",-4.18%,-5.71%,2.08%,-13.1%,-5.98%,2.98%,-2.46%,-8.69%,-6.14%,-34.3%,8.82%,-2.78%,-7.6%,-4.47%,16.9%,11.3%,6.53%,13.3%,4.98%,8.23%,inhibition at 10 µM [21]: 3.19%; inhibition at 10 µM [22]: 4.07%; inhibition at 10 µM [23]: -6.19%; inhibition at 10 µM [24]: 3.15%; inhibition at 10 µM [25]: -15.3%; inhibition at 10 µM [26]: 0.98%; inhibition at 10 µM [27]: 9.34%; inhibition at 10 µM [28]: -8.05%; inhibition at 10 µM [29]: 5.3%; inhibition at 10 µM [30]: 4.39%; inhibition at 10 µM [31]: -0.26%; inhibition at 10 µM [32]: 13.1%; inhibition at 10 µM [33]: 1.17%; inhibition at 10 µM [34]: -10.2%; inhibition at 10 µM [35]: 9.77%; inhibition at 10 µM [36]: 14.5%
